In ChEMBL document CHEMBL1133442, “Symmetrical bis(heteroarylmethoxyphenyl)alkylcarboxylic acids as inhibitors of leukotriene biosynthesis” (J Med Chem, 2000):

Columns and labels:
Assay type in all cases: functional
Homo sapiens [1] = organism: Homo sapiens; experiment: Inhibition of calcium ionophore (A-23187) stimulated leukotriene B4 (LTB4) formation in human neutrophils at 390 nM
Rattus norvegicus [2] = experiment: Inhibition of leukotriene production in an ionophore-induced rat pleurisy model at 3 mg/kg; settings: for inhibition in vivo at 3 mg/kg: Rattus norvegicus
Rattus norvegicus [3] = experiment: In vivo inhibition evaluation of leukotriene inhibition in an ionophore-induced rat pleurisy at 3 mg/kg
Homo sapiens [4] = organism: Homo sapiens; experiment: Inhibition of calcium ionophore (A-23187) -stimulated leukotriene B4 (LTB4) formation in human neutrophils at 390 nM

Structure (SMILES) | IC50 (Homo sapiens [1]; Homo sapiens) | inhibition in vivo at 3 mg/kg (Rattus norvegicus [2]) | other results
O=C(O)CON=C1CCC(c2ccc(OCc3ccc4ccccc4n3)cc2)(c2ccc(OCc3ccc4ccccc4n3)cc2)CC1 | 65 nM | 0% | –
O=C([O-])C1CCC(c2ccc(OCc3ccc4ccccc4n3)cc2)(c2ccc(OCc3ccc4ccccc4n3)cc2)CC1.[Na+] | 47 nM | – | Inhibition (Rattus norvegicus [2]): 18%
CC(CCC(=O)[O-])(c1ccc(OCc2ccc3ccccc3n2)cc1)c1ccc(OCc2ccc3ccccc3n2)cc1.[Na+] | – | – | IC50 (Homo sapiens [1]): 20 nM; ED50 (Rattus norvegicus [3]): 3 mg/kg
O=C(O)C1CCC(c2ccc(OCc3ccc4ccccc4n3)cc2)(c2ccc(OCc3ccc4ccccc4n3)cc2)CC1 | – | – | Inhibition (Rattus norvegicus [2]): 0%; IC50 (Homo sapiens [1]): 60 nM
CC(CCC(=O)O)(c1ccc(OCc2cnc3ccccc3n2)cc1)c1ccc(OCc2cnc3ccccc3n2)cc1 | – | 14% | inhibition at 0.39 µM (Homo sapiens [4]; Homo sapiens): 47%
CC(SCC(=O)O)(c1ccc(OCc2ccc3ccccc3n2)cc1)c1ccc(OCc2ccc3ccccc3n2)cc1 | – | 0% | inhibition at 0.39 µM (Homo sapiens [4]; Homo sapiens): 62%
CC(CCC(=O)O)(c1ccc(OCc2ccc3ccccc3n2)cc1)c1ccc(OCc2nc3ccccc3s2)cc1 (stereo not drawn) [listing 1 of 2 here] | 52 nM | – | –
CC(CC(c1ccc(OCc2ccc3ccccc3n2)cc1)c1ccc(OCc2ccc3ccccc3n2)cc1)C(=O)O (stereo not drawn) [listing 1 of 2 here] | – | – | Inhibition (Rattus norvegicus [2]): 43%; inhibition at 0.39 µM (Homo sapiens [4]; Homo sapiens): 82%
O=C(O)CO/N=C/C=C(c1ccc(OCc2ccc3ccccc3n2)cc1)c1ccc(OCc2ccc3ccccc3n2)cc1 | 26 nM | 10% | –
O=C(O)/C=N/OCC=C(c1ccc(OCc2ccc3ccccc3n2)cc1)c1ccc(OCc2ccc3ccccc3n2)cc1 | – | 17% | inhibition at 0.39 µM (Homo sapiens [4]; Homo sapiens): 100%
CCOC(=O)C1CCC(c2ccc(OCc3ccc4ccccc4n3)cc2)(c2ccc(OCc3ccc4ccccc4n3)cc2)CC1 | 1900 nM | – | –
CC(CCC(=O)O)(c1ccc(OCc2ccc3ccccc3c2)cc1)c1ccc(OCc2ccc3ccccc3c2)cc1 | 830 nM | – | –
CC(CCC(=O)O)(c1ccc(OCc2ccc3cc(F)ccc3n2)cc1)c1ccc(OCc2ccc3cc(F)ccc3n2)cc1 | 40 nM | 42% | –
O=C(O)C#CC(O)(c1ccc(OCc2ccc3ccccc3n2)cc1)c1ccc(OCc2ccc3ccccc3n2)cc1 | – | 48% | inhibition at 0.39 µM (Homo sapiens [4]; Homo sapiens): 98%
Cn1c(COc2ccc(C(C)(CCC(=O)O)c3ccc(OCc4ccc5ccccc5n4)cc3)cc2)nc2ccccc21 (stereo not drawn) | – | – | Inhibition (Rattus norvegicus [2]): 0%; IC50 (Homo sapiens [1]): 80 nM
CC(CCC(=O)O)(c1ccc(OCc2ccc3ccccc3c2)cc1)c1ccc(OCc2ccc3ccccc3n2)cc1 (stereo not drawn) | – | 55% | inhibition at 0.39 µM (Homo sapiens [4]; Homo sapiens): 93%
CC(CCC(=O)O)(c1ccc(OCc2ccccn2)cc1)c1ccc(OCc2ccccn2)cc1 | – | – | inhibition at 0.39 µM (Homo sapiens [4]): 53%; inhibition in vivo at 3 mg/kg (Rattus norvegicus [3]): 0%

Structure (SMILES) | IC50 (Homo sapiens [1]; Homo sapiens) | inhibition in vivo at 3 mg/kg (Rattus norvegicus [2]) | other results
C/C(=N\OCCC(C)(c1ccc(OCc2ccc3ccccc3n2)cc1)c1ccc(OCc2ccc3ccccc3n2)cc1)C(=O)O | – | 23% | inhibition at 0.39 µM (Homo sapiens [4]; Homo sapiens): 54%
C/C(=N\OC1CCC(c2ccc(OCc3ccc4ccccc4n3)cc2)(c2ccc(OCc3ccc4ccccc4n3)cc2)CC1)C(=O)O | 37 nM | 48% | –
CC(CCCC(=O)O)(c1ccc(OCc2ccc3ccccc3n2)cc1)c1ccc(OCc2ccc3ccccc3n2)cc1 [listing 1 of 2 here] | – | – | Inhibition (Rattus norvegicus [2]): 32%; IC50 (Homo sapiens [1]): 43 nM
O=C(O)CSC(c1ccc(OCc2ccc3ccccc3n2)cc1)(c1ccc(OCc2ccc3ccccc3n2)cc1)c1cccs1 [listing 2 of 2 here] | – | 80% | –
Cn1c(COc2ccc(C(C)(CCC(=O)[O-])c3ccc(OCc4nc5ccccc5n4C)cc3)cc2)nc2ccccc21.[Na+] | – | – | Inhibition (Rattus norvegicus [2]): 29%; Inhibition (Homo sapiens [4]): 59%
CC(C(=O)[O-])(c1ccc(OCc2ccc3ccccc3n2)cc1)c1ccc(OCc2ccc3ccccc3n2)cc1.[Na+] | – | – | Inhibition (Rattus norvegicus [2]): 46%; IC50 (Homo sapiens [1]): 37 nM
Cn1c(COc2ccc(C(C)(CCC(=O)O)c3ccc(OCc4nc5ccccc5n4C)cc3)cc2)nc2ccccc21 | – | – | Inhibition (Rattus norvegicus [2]): 0%; Inhibition (Homo sapiens [4]): 27%
CC(CCC(=O)[O-])(c1ccc(OCc2ccc3ccccc3c2)cc1)c1ccc(OCc2ccc3ccccc3n2)cc1.[Na+] (stereo not drawn) | – | – | Inhibition (Rattus norvegicus [2]): 40%
Cn1c(COc2ccc(C(C)(CCC(=O)[O-])c3ccc(OCc4ccc5ccccc5n4)cc3)cc2)nc2ccccc21.[Na+] (stereo not drawn) | 90 nM | – | Inhibition (Rattus norvegicus [2]): 10%
CC(CCC(=O)O)(c1ccc(OCc2nc3ccccc3s2)cc1)c1ccc(OCc2nc3ccccc3s2)cc1 [listing 1 of 2 here] | – | – | IC50 (Homo sapiens [1]): 50 nM
CC(CCC(=O)O)(c1ccc(OCc2nc3ccccc3s2)cc1)c1ccc(OCc2nc3ccccc3s2)cc1 [listing 2 of 2 here] | 46 nM | 0% | –
O=C([O-])CC(c1ccc(OCc2ccc3ccccc3n2)cc1)c1ccc(OCc2ccc3ccccc3n2)cc1.[Na+] | – | – | Inhibition (Rattus norvegicus [2]): 30%; IC50 (Homo sapiens [1]): 70 nM
O=C([O-])C=C(c1ccc(OCc2ccc3ccccc3n2)cc1)c1ccc(OCc2ccc3ccccc3n2)cc1.[Na+] | – | – | Inhibition (Rattus norvegicus [2]): 19%; IC50 (Homo sapiens [1]): 40 nM
OC(c1ccc(OCc2ccc3ccccc3n2)cc1)(c1ccc(OCc2ccc3ccccc3n2)cc1)c1cccs1 | – | 0% | inhibition at 0.39 µM (Homo sapiens [4]; Homo sapiens): 87%
CC(CCC(=O)O)(c1ccc(OCc2ccc3ccccc3n2)cc1)c1ccc(OCc2nc3ccccc3s2)cc1 (stereo not drawn) [listing 2 of 2 here] | – | 35% | inhibition at 0.39 µM (Homo sapiens [4]; Homo sapiens): 95%
OCC1CCC(c2ccc(OCc3ccc4ccccc4n3)cc2)(c2ccc(OCc3ccc4ccccc4n3)cc2)CC1 | – | – | inhibition at 0.39 µM (Homo sapiens [4]; Homo sapiens): 28%
O=C(O)/C=N/OC1CCC(c2ccc(OCc3ccc4ccccc4n3)cc2)(c2ccc(OCc3ccc4ccccc4n3)cc2)CC1 | – | 15% | inhibition at 0.39 µM (Homo sapiens [4]; Homo sapiens): 54%

The next lines start with results.

IC50 (Homo sapiens [1]; Homo sapiens) | Structure (SMILES) | inhibition in vivo at 3 mg/kg (Rattus norvegicus [2]) | other results
60 nM | O=C(O)C(c1ccc(OCc2ccc3ccccc3n2)cc1)c1ccc(OCc2ccc3ccccc3n2)cc1 | – | –
30 nM | CC(CCCO/N=C/C(=O)O)(c1ccc(OCc2ccc3ccccc3n2)cc1)c1ccc(OCc2ccc3ccccc3n2)cc1 | 0% | –
50 nM | O=C(O)C=C(c1ccc(OCc2ccc3ccccc3n2)cc1)c1ccc(OCc2ccc3ccccc3n2)cc1 | 11% | –
34 nM | CC(C)(CO/N=C/C(=O)O)C(c1ccc(OCc2ccc3ccccc3n2)cc1)c1ccc(OCc2ccc3ccccc3n2)cc1 | 27% | –
130 nM | CC(CCCO)(c1ccc(OCc2ccc3ccccc3n2)cc1)c1ccc(OCc2ccc3ccccc3n2)cc1 | 7% | –
50 nM | C/C(CCC(=O)O)=N\OC(c1ccc(OCc2ccc3ccccc3n2)cc1)c1ccc(OCc2ccc3ccccc3n2)cc1 | – | ED50 (Rattus norvegicus [3]): 1 mg/kg
50 nM | CC(O)(c1ccc(OCc2ccc3ccccc3n2)cc1)c1ccc(OCc2ccc3ccccc3n2)cc1 | 0% | –
21 nM | C/C(=N\OC(c1ccc(OCc2ccc3ccccc3n2)cc1)c1ccc(OCc2ccc3ccccc3n2)cc1)C(=O)O | – | ED50 (Rattus norvegicus [3]): 1.5 mg/kg
32 nM | O=C(O)CON=C(c1ccc(OCc2ccc3ccccc3n2)cc1)c1ccc(OCc2ccc3ccccc3n2)cc1 | 0% | –
20 nM | C/C(=N\OCC=C(c1ccc(OCc2ccc3ccccc3n2)cc1)c1ccc(OCc2ccc3ccccc3n2)cc1)C(=O)O | 42% | –
59 nM | C/C(=N\OCCC#CC(O)(c1ccc(OCc2ccc3ccccc3n2)cc1)c1ccc(OCc2ccc3ccccc3n2)cc1)C(=O)O | 40% | –
46 nM | CC(CC(c1ccc(OCc2ccc3ccccc3n2)cc1)c1ccc(OCc2ccc3ccccc3n2)cc1)C(=O)O (stereo not drawn) [listing 2 of 2 here] | 53% | –
35 nM | O=C(O)CO/N=C/C(c1ccc(OCc2ccc3ccccc3n2)cc1)c1ccc(OCc2ccc3ccccc3n2)cc1 | – | –
170 nM | CC(CC(=O)O)(c1ccc(OCc2ccc3ccccc3n2)cc1)c1ccc(OCc2ccc3ccccc3n2)cc1 | 0% | –
170 nM | OC(c1ccc(OCc2ccc3ccccc3n2)cc1)c1ccc(OCc2ccc3ccccc3n2)cc1 | 2% | –
40 nM | CC(CC/C=N\OCC(=O)O)(c1ccc(OCc2ccc3ccccc3n2)cc1)c1ccc(OCc2ccc3ccccc3n2)cc1 | 0% | –
28 nM | CC(C)(/C=N/OCC(=O)O)C(c1ccc(OCc2ccc3ccccc3n2)cc1)c1ccc(OCc2ccc3ccccc3n2)cc1 | 42% | –
23 nM | CC(CCC(=O)O)(c1ccc(OCc2ccc3ccccc3n2)cc1)c1ccc(OCc2ccc3ccccc3n2)cc1 | – | ED50 (Rattus norvegicus [3]): 1.5 mg/kg
60 nM | O=C(O)CC(c1ccc(OCc2ccc3ccccc3n2)cc1)c1ccc(OCc2ccc3ccccc3n2)cc1 | 17% | –
11 nM | O=C(O)CSC(c1ccc(OCc2ccc3ccccc3n2)cc1)(c1ccc(OCc2ccc3ccccc3n2)cc1)c1cccs1 [listing 1 of 2 here] | – | ED50 (Rattus norvegicus [3]): 1.1 mg/kg
68 nM | O=C(O)/C=N/OC(c1ccc(OCc2ccc3ccccc3n2)cc1)c1ccc(OCc2ccc3ccccc3n2)cc1 | 37% | –
30 nM | CC(/C=C/C(=O)O)=N\OC(c1ccc(OCc2ccc3ccccc3n2)cc1)c1ccc(OCc2ccc3ccccc3n2)cc1 | 27% | –
100 nM | CC(C)(C(=O)O)C(c1ccc(OCc2ccc3ccccc3n2)cc1)c1ccc(OCc2ccc3ccccc3n2)cc1 | 50% | –
58 nM | O=C(O)CSC(c1ccc(OCc2ccc3ccccc3n2)cc1)c1ccc(OCc2ccc3ccccc3n2)cc1 | – | –
32 nM | CC(CCCC(=O)O)(c1ccc(OCc2ccc3ccccc3n2)cc1)c1ccc(OCc2ccc3ccccc3n2)cc1 [listing 2 of 2 here] | 35% | –
87 nM | O=C(O)CSC(c1ccccc1)(c1ccc(OCc2ccc3ccccc3n2)cc1)c1ccc(OCc2ccc3ccccc3n2)cc1 | – | –
32 nM | CC(C(=O)O)(c1ccc(OCc2ccc3ccccc3n2)cc1)c1ccc(OCc2ccc3ccccc3n2)cc1 | – | Inhibition (Rattus norvegicus [2]): 25%
35 nM | C/C(=N\OCCCC(C)(c1ccc(OCc2ccc3ccccc3n2)cc1)c1ccc(OCc2ccc3ccccc3n2)cc1)C(=O)O | 4% | –
